Series [1] can be described thus: pKa determination by titration with aqueous potassium hydroxide.
Text: The pKa value was taken as the pH at ½-equivalent volume of potassium hydroxide and corrected against a standard curve prepared from measurements on maleic acid, succinic acid, methacrylic acid, propanoic acid and pentanoic acid.
A short description of series [2]: Solubility of the product in solvents. It is filed as physicochemical.
Series [3] is described as follows: Effect of hydrogen peroxide oxidation of thioether sulphur on pKa. The series is classed as physicochemical. The conditions noted are these: 0.82-2.17 eq. H2O2 (30%), after 2 days at room temperature, average pKa of oxidation products. As for the experimental part: Five aqueous (35 ml) solutions of GALA (approx 2 mmol) was prepared) and varying amounts of hydrogen peroxide (0.82-2.17 eq., 30%) added. The average pKa value of the oxidation products was assessed after 2 days at room temperature, and the relation between pKa and mol ratio H2O2/S can be seen in FIG. 1.

Where [4] appears, read: in water, pH at 1/2-equivalent volume of 0.1 M KOH, corrected against a standard curve.

Five molecules from patent US8431748B2, “Low protonation constant hydroxy acids” (BWE I Malmo AB, priority 2006, dated 2013) can be followed below.

Broadly, the pKa is the negative logarithm of the acid dissociation constant.

SMILES strings stand for the structures.

`CCC(CO)(CO)C(=O)O` [DMBA, 2,2-bis-(hydroxymethyl)butanoic acid, reference compound] displayed a pKa in series [1] (water) of 4.55.
Still for that read-out and setting: to `CC(CO)(CO)C(=O)O` [DMPA, 2,2-bis-(hydroxymethyl)propanoic acid, reference compound] belongs 4.64.
For the molecule `CC(SCCCOCC(O)CO)C(=O)O` (stereo not drawn) [GALA, Glycerol Monoallyl Ether-Thiolactic Acid Adduct], the “solubility in ethanol/toluene (1/4)” value in series [2] (ethanol/toluene (1/4)) is given as “soluble”. Also, in series [2], the solubility in hexane entry is reported as “not soluble” and the solubility in methanol result is on record as “soluble”. Further, the solubility in water result in series [2] (water) was “soluble”. Moreover, the “reduction of pKa value by addition of hydrogen peroxide” value in series [3] is listed as “approximately 1 unit”. Moreover, the pKa in series [1] (setting [4]) is recorded as 3.67.
With `O=C(O)CSCCCOCC(O)CO` (stereo not drawn) [GAMA, Glycerol 1-Monoallyl Ether-Mercaptoacetic Acid], the pKa in series [1] (setting [4]) was determined as 3.60.
Take `CCC(CO)(CO)COCCCSC(C)C(=O)O` (stereo not drawn) [TELA, Trimethyolpropane Monoallyl Ether-Thiolactic Acid Adduct]: in series [2], the solubility in hexane entry is reported as “not soluble” and the solubility in methanol result is recorded as “soluble”. Further, the solubility in toluene result in series [2] (toluene) is on record as “soluble”.
